The text below walks through data of ChEMBL document CHEMBL1152002, “Synthesis of inhibitors of -1,3-fucosyltransferase” (Bioorg Med Chem Lett, 1997).

Where only a bound is given, the exact number is not on record here.

The first experiment can be described thus: Compound was tested for the inhibition of Fucosyltransferase 4 alpha 1,3 at 8.5 uM GDP-fucose.
Turning to `C[C@H]1[C@@H](O)[C@H](O)[C@H](O)CN1CCCCO[C@@H]1O[C@@H](CO)[C@H](O)[C@H](O)[C@@H]1O`, half-maximal inhibition (IC50) was put at 233 µM. Still for that read-out and setting: the same measure for `C[C@H]1[C@@H](O)[C@H](O)[C@H](O)CN1Cc1ccccc1O[C@@H]1O[C@@H](CO)[C@H](O)[C@H](O)[C@@H]1O`: 81 µM; for `Nc1nc2c(ncn2[C@@H]2O[C@H](COP(=O)(O)OP(=O)(O)O)[C@@H](O)[C@H]2O)c(=O)[nH]1`: 5 µM; for `C[C@@H]1NC[C@@H](O)[C@H](O)[C@@H]1O` [DEOXYFUCONOJIRIMYCIN]: 3500 µM. In the case of `C[C@H]1[C@@H](O)[C@H](O)[C@H](O)CN1CCCO[C@@H]1O[C@@H](CO)[C@H](O)[C@H](O)[C@@H]1O`, the IC50 (usually the concentration at which inhibition is half-maximal) was over 500 µM.

The next experiment in a line: Compound was tested for the inhibition of Fucosyltransferase 4 alpha 1,3 at 2 uM GDP-fucose.
`C[C@H]1[C@@H](O)[C@H](O)[C@H](O)CN1Cc1ccccc1O[C@@H]1O[C@@H](CO)[C@H](O)[C@H](O)[C@@H]1O` had an IC50 of 50 µM.
